These results are taken from patent US7446094B2, “Cytotoxic depsipeptides” (Instituto Biomar S.A., priority 2003, dated 2008).

The test system of one data set is Hela S3 cells. The settings on record: from JP 11180997; cited from earlier work.
For data set [1], the system named is human breast tumour (MX-1 cell line) xenografts. Kind of data set: Human breast tumour xenograft, net tumour growth. The arrangement: key to Net Tumour Growth ± S.E.M.: †: High mortality prevented meaningful statistical analysis. The settings on record: for Net Tumour Growth ± S.E.M.: MX-1 xenograft. The class given is in vivo, female athymic mice. The source says:
(§1) At different times, three human tumour cell lines MX-1 (breast), HT-29 (colon), and LX-1 (non-small cell lung), respectively, were implanted subcutaneously into separate groups of recipient female athymic mice as a small seedling of approximately 2-3 mm^3. Each tumour type was then allowed to grow inside the animal to reach a group mean size of 100±15 mm^3, at which time tumour-bearing mice were randomized into groups (Staging Day). The Staging Day also coincided with Day 0 for drug dosing.
(§2) The test article was administered as a single intravenous (iv) bolus injection (i.e., QD×1) on the Staging Day (Day 0).
(§3) Tumour burden was determined for all animals throughout the study using a caliper, and the frequency was at least twice per week.
(§4) Protocols and criteria for drug activity were derived from those established by the National Cancer Institute for tumour systems similar to those used in these studies (NIH Publication No. 84-2635, In vivo cancer models 1976-1982). Statistical analysis of tumour volumes for each group of drug treated animals was performed according to the Mann Whitney nonparametric test based on comparisons to the vehicle control cohort within the same experiment.
(§5) Tumour lengths (L) and widths (W) were measured in millimeters (mm) using calipers, recorded, and tumour volume was calculated by the formula: Volume (mm^3)=L×W^2×0.5. Individual values were determined for each tumour-bearing athymic- mouse and specified day of measurement (day D). On the tumour Staging Day (Day 0), the tumour volume of a treated animal (T01) was subtracted from the corresponding tumour volume on each observation day (TD1). This provided the change (Δ) in tumour volume for the said treated athymic mouse (ΔT1=TD1−T01). The change in tumour volumes for each member of the control cohort (ΔC) was calculated in a similar fashion as above.
(§6) At randomization (Day 0) the average volume of the tumour mass was 100±15 mm^3 and the “net tumour growth” is really a difference between the size of the tumour on Day X and that on Day 0. The parameter S.E.M. is commonly used in statistics and stands for standard error of the mean in a distribution of N (size) experimental values.
For orientation: Xenograft models place foreign cells or tissue in a host animal.

The subject of data set [2] is human colon tumour (HT-29 cell line) xenografts. Briefly: Human colon tumour xenograft, net tumour growth. Particulars: for Net Tumour Growth ± S.E.M.: HT-29 xenograft, single iv dose 0.5 mg/kg. In kind it is in vivo, female athymic mice.
From the text: as §1, §2, §3, §4, §5, §6

A short description of data set [3]: Maximum tolerated dose in mice. The settings on record: CD-1, mouse, in vivo.
The subject of data set [4] is human non-small cell lung tumour (LX-1 cell line) xenografts. Kind of data set: Human non-small cell lung tumour xenograft, net tumour growth. The class given is in vivo, female athymic mice. The settings on record: for Net Tumour Growth ± S.E.M.: LX-1 xenograft.
From the text: as §1, §2, §3, §4, §5, §6

In a further data set the test system is CHSA. Kind of data set: MTS tetrazolium cytotoxicity assay. The class given is cell-based. Particulars: Homo sapiens, 72 h, read-out: Cytotoxic activity (IC50). An excerpt: (§7) The finality of these assays is to interrupt the growth of an “in vitro” tumour cell culture by means a continued exhibition of the cells to the sample to be testing. The following human cell lines were used:
(§8) Tetrazolium Assay MTS is based on metabolic reduction of MTS to solubilized formazan crystals by the metabolically active mitochondria of living cells. For this reason, the methodology includes counting of the cell lines based on viability staining to ensure that cell concentrations are corrected to allow for 100% living cells into each well in lieu of Coulter counting or estimated dilutions based on standard growth curves.
(§9) Medium containing drug was removed at the end of the treatment and culture plates rinsed one time with PBS. Afterward, cells were incubated in 200 μl of drug-free medium until 72 hours. After appropriate incubation time 25 μl of MTS+PMS solution was added to each microtiter well and incubated for 4 hours at 37° C. Plates were then removed from the incubator and placed on plate shaker for 5 minutes (covered for protection from light). Optical densities were read at 490 nm on spectrophotometer plate reader. Data was analyzed using Softmax.
(§10) Data is presented as IC50 potencies calculated from 3rd order polynomial regression curves using Microsoft Excel and then manually interpolated.
For orientation: Formazan colour is commonly taken as a measure of viable cells.

A further data set has as its system LNCAP. Kind of data set: MTS tetrazolium cytotoxicity assay. The class given is cell-based. Particulars: Homo sapiens, 72 h, read-out: Cytotoxic activity (IC50).
From the text: as §7, §8, §9, §10

The next data set concerns FADU. Briefly: MTS tetrazolium cytotoxicity assay. Particulars: Homo sapiens, 72 h, read-out: Cytotoxic activity (IC50). In kind it is cell-based.
From the text: as §7, §8, §9, §10

The next data set has as its system Y-79. Briefly: MTS tetrazolium cytotoxicity assay. In kind it is cell-based. The settings on record: Homo sapiens, Y79, 72 h, read-out: Cytotoxic activity (IC50).
From the text: as §7, §8, §9, §10

The subject of a further data set is MX-1. Kind of data set: MTS tetrazolium cytotoxicity assay. In kind it is cell-based. Particulars: Homo sapiens, MX1, 72 h, read-out: Cytotoxic activity (IC50).
From the text: as §7, §8, §9, §10

The next data set relates to SW 694. Briefly: MTS tetrazolium cytotoxicity assay. Particulars: Homo sapiens, 72 h, read-out: Cytotoxic activity (IC50). In kind it is cell-based.
From the text: as §7, §8, §9, §10

The subject of the next data set is TT. Kind of data set: MTS tetrazolium cytotoxicity assay. Particulars: Homo sapiens, 72 h, read-out: Cytotoxic activity (IC50). The class given is cell-based.
From the text: as §7, §8, §9, §10

The next data set has as its system SK-OV-3. Kind of data set: MTS tetrazolium cytotoxicity assay. The class given is cell-based. Particulars: Homo sapiens, SK-OV-3, 72 h, read-out: Cytotoxic activity (IC50).
From the text: as §7, §8, §9, §10

A further data set has as its system BT-474. Briefly: MTS tetrazolium cytotoxicity assay. The class given is cell-based. Particulars: Homo sapiens, BT-474, 72 h, read-out: Cytotoxic activity (IC50).
From the text: as §7, §8, §9, §10

The next data set relates to 786-O. Kind of data set: MTS tetrazolium cytotoxicity assay. The class given is cell-based. The settings on record: Homo sapiens, 786-0, 72 h, read-out: Cytotoxic activity (IC50).
From the text: as §7, §8, §9, §10

In another data set the test system is NCI-H187. Briefly: MTS tetrazolium cytotoxicity assay. In kind it is cell-based. Particulars: Homo sapiens, NCI-H187, 72 h, read-out: Cytotoxic activity (IC50).
From the text: as §7, §8, §9, §10

The subject of a further data set is SK-HEP-1. Briefly: MTS tetrazolium cytotoxicity assay. In kind it is cell-based. The settings on record: Homo sapiens, SK-HEP1, 72 h, read-out: Cytotoxic activity (IC50).
From the text: as §7, §8, §9, §10

The next data set relates to H9. Kind of data set: MTS tetrazolium cytotoxicity assay. In kind it is cell-based. The settings on record: Homo sapiens, H9, 72 h, read-out: Cytotoxic activity (IC50).
From the text: as §7, §8, §9, §10

The test system of a further data set is PANC-1. Kind of data set: MTS tetrazolium cytotoxicity assay. In kind it is cell-based. The settings on record: Homo sapiens, PANC-1, 72 h, read-out: Cytotoxic activity (IC50).
From the text: as §7, §8, §9, §10

Another data set concerns Mel-28. Kind of data set: MTS tetrazolium cytotoxicity assay. The class given is cell-based. The settings on record: Homo sapiens, SK-MEL-28, 72 h, read-out: Cytotoxic activity (IC50).
From the text: as §7, §8, §9, §10

In the next data set the test system is HT-29. Briefly: MTS tetrazolium cytotoxicity assay. The class given is cell-based. The settings on record: Homo sapiens, HT-29, 72 h, read-out: Cytotoxic activity (IC50).
From the text: as §7, §8, §9, §10

In the next data set the test system is 5637. Kind of data set: MTS tetrazolium cytotoxicity assay. The settings on record: Homo sapiens, 72 h, read-out: Cytotoxic activity (IC50). The class given is cell-based.
From the text: as §7, §8, §9, §10

The test system of the next data set is K562. Kind of data set: MTS tetrazolium cytotoxicity assay. Particulars: Homo sapiens, K562, 72 h, read-out: Cytotoxic activity (IC50). The class given is cell-based.
From the text: as §7, §8, §9, §10

The test system of the next data set is SW-579. Briefly: MTS tetrazolium cytotoxicity assay. The class given is cell-based. Particulars: Homo sapiens, SW579, 72 h, read-out: Cytotoxic activity (IC50).
From the text: as §7, §8, §9, §10

Another data set deals with DU-145. Kind of data set: MTS tetrazolium cytotoxicity assay. The settings on record: Homo sapiens, DU-145, 72 h, read-out: Cytotoxic activity (IC50). In kind it is cell-based.
From the text: as §7, §8, §9, §10

In another data set the test system is Hs746t. Kind of data set: MTS tetrazolium cytotoxicity assay. The settings on record: Homo sapiens, 72 h, read-out: Cytotoxic activity (IC50). In kind it is cell-based.
From the text: as §7, §8, §9, §10

A further data set relates to SK-N-MC. Kind of data set: MTS tetrazolium cytotoxicity assay. In kind it is cell-based. The settings on record: Homo sapiens, 72 h, read-out: Cytotoxic activity (IC50).
From the text: as §7, §8, §9, §10

For the next data set, the system named is OSA-FH. Briefly: MTS tetrazolium cytotoxicity assay. In kind it is cell-based. The settings on record: Homo sapiens, 72 h, read-out: Cytotoxic activity (IC50).
From the text: as §7, §8, §9, §10

Another data set has as its system A549. Kind of data set: MTS tetrazolium cytotoxicity assay. In kind it is cell-based. The settings on record: Homo sapiens, A549, 72 h, read-out: Cytotoxic activity (IC50).
From the text: as §7, §8, §9, §10

Another data set concerns HL-60. Kind of data set: MTS tetrazolium cytotoxicity assay. The class given is cell-based. Particulars: Homo sapiens, HL-60, 72 h, read-out: Cytotoxic activity (IC50).
From the text: as §7, §8, §9, §10

In the next data set the test system is PC-3. Kind of data set: MTS tetrazolium cytotoxicity assay. In kind it is cell-based. The settings on record: Homo sapiens, PC-3, 72 h, read-out: Cytotoxic activity (IC50).
From the text: as §7, §8, §9, §10

Another data set deals with MC116. Briefly: MTS tetrazolium cytotoxicity assay. In kind it is cell-based. Particulars: Homo sapiens, MC116, 72 h, read-out: Cytotoxic activity (IC50).
From the text: as §7, §8, §9, §10

[5] abbreviates: single iv dose 1.0 mg/kg, DAY 3.
Setting [6] is: single iv dose 1.0 mg/kg, DAY 6.
[7] abbreviates: single iv dose 1.0 mg/kg, DAY 10.
Where [8] appears, read: single iv dose 1.5 mg/kg, DAY 3.
Setting [9] is: single iv dose 1.5 mg/kg, DAY 6.
[10] abbreviates: single iv dose 1.5 mg/kg, DAY 10.

One may read the IC50 as the midpoint of a concentration-inhibition curve. In general, MTD refers to the highest dose tested that stayed within the study's limit of toxicity.

As to `CCC(C)C1NC(=O)c2nc(oc2-c2ccccc2)-c2csc(n2)-c2coc(n2)-c2coc(n2)-c2coc(n2)CNC(=O)C(C(C)C)NC1=O` (centres unmarked), in the data set on Hela S3 cells, the IC50 was 14 nM.
Consider `C=C1NC(=O)C(C(C)C)NC(=O)C(C(C)CC)NC(=O)c2nc(oc2-c2ccccc2)-c2coc(n2)-c2csc(n2)-c2coc(n2)-c2coc1n2` (centres unmarked) [IB-01211], for which the “Net Tumour Growth ± S.E.M.” value in data set [1] (setting [5]) is given as 5 ± 3 mm^3; in data set [1] (setting [6]), 113 ± 62 mm^3; in data set [1] (setting [7]), 450 ± 137 mm^3; in [1] (setting [8]), “†”; in [1] (setting [9]) it was “†”; in data set [1] (setting [10]), “†”. Also, the “Net Tumour Growth ± S.E.M.” value in [2] (DAY 1) was determined as 26 ± 11 mm^3; in data set [2] (DAY 4) it was 53 ± 28 mm^3; in data set [2] (DAY 8), 162 ± 34 mm^3; in [4] (setting [5]) it was 68 ± 29 mm^3; in data set [4] (setting [6]) it was 234 ± 11 mm^3; in data set [4] (setting [7]), 561 ± 60 mm^3. In addition, the “Net Tumour Growth ± S.E.M.” value in [4] (setting [8]) stood at 11 ± 19 mm^3; in data set [4] (setting [9]), 121 ± 51 mm^3; in [4] (setting [10]) it was 309 ± 71 mm^3. Moreover, the “antitumour effect in vivo” value in [1] (breast tumour, dose of 0.29 MTD) is “trend to significance”; in data set [2] (colon tumour, dose of 0.14 MTD) it was “not against colon tumour”; in data set [4] (human non-small cell lung tumour, dose of 0.43 MTD), “significant antitumour effect”. Also, the MTD in data set [3] amounted to 3.5 mg/kg. Besides, the IC50 in the data set with CHSA was determined as 353 nM; with LNCAP, 650 nM; with FADU, 664 nM; in the data set with Y-79 it was 93.2 nM; in the data set with MX-1, 862 nM; in the data set on SW 694, 720 nM. For the same compound, the IC50 came out at 4380 nM with TT; 946 nM with SK-OV-3; 537 nM in the data set with BT-474; 692 nM with 786-O; 29.7 nM in the data set with NCI-H187; 664 nM with SK-HEP-1. The IC50 was 184 nM in the data set with H9; 424 nM in the data set with PANC-1; 508 nM in the data set on Mel-28; 817 nM in the data set with HT-29; 339 nM in the data set on 5637; 636 nM with K562. For the same compound, the IC50 in the data set with SW-579 was found to be 452 nM; with DU-145, 480 nM; with Hs746t it was 692 nM; in the data set on SK-N-MC, 537 nM; in the data set on OSA-FH, 720 nM; with A549, 918 nM. Besides, the figures for the IC50 in the data set on HL-60, with PC-3 and in the data set with MC116 were 141 nM, 621 nM and 3390 nM, respectively.
